Source: the NIST ThermoML archive (doi:10.1016/j.jct.2010.05.002)

Assay: molar heat capacity at constant pressure
Conditions: 101.33 kPa, Crystal 2, Vacuum adiabatic calorimetry

Cc1ccc(-c2ccccc2)cc1 [4-methylbiphenyl]
Conditions	molar heat capacity at constant pressure [J/K/mol]
8.42 K	3.698
8.7 K	3.996
8.96 K	4.244
9.47 K	4.835
9.97 K	5.433
10.28 K	5.778
10.67 K	6.273
11.06 K	6.777
11.44 K	7.338
11.83 K	7.812
12.21 K	8.286
12.59 K	8.722
12.96 K	9.194
13.35 K	9.76
13.72 K	10.44
14.09 K	10.74
14.46 K	11.37
14.83 K	11.81
15.2 K	12.22
15.56 K	12.8
15.92 K	13.35
16.28 K	13.95
16.65 K	14.46
17.01 K	14.64
17.37 K	15.38
17.72 K	16.09
18.08 K	16.37
18.44 K	17.11
18.79 K	17.51
19.88 K	19.13
20.58 K	20.29
21.36 K	21.32
22.14 K	22.38
22.91 K	23.6
23.69 K	24.61
24.46 K	25.76
25.23 K	26.8
26 K	27.57
26.76 K	28.86
27.53 K	30.07
28.29 K	30.9
29.05 K	32.05
29.81 K	33.03
30.57 K	34.28
31.33 K	35.24
32.09 K	36.41
32.86 K	36.83
33.62 K	38.31
34.37 K	39.14
35.13 K	39.93
35.88 K	41.05
36.64 K	41.53
37.39 K	42.34
38.14 K	43.78
38.9 K	44.06
39.65 K	45.4
40.4 K	45.99
41.15 K	46.64
41.9 K	47.81
42.65 K	48.69
43.4 K	49.76
44.15 K	50.64
44.91 K	50.57
45.66 K	51.28
46.41 K	52.33
47.16 K	53.31
47.91 K	53.96
48.65 K	55.09
49.4 K	56.25
50.15 K	56.83
50.9 K	57.26
51.65 K	58.12
52.4 K	59.37
53.15 K	59.9
53.9 K	60.72
54.64 K	61.66
55.39 K	62.7
56.14 K	63.64
56.89 K	63.48
57.64 K	64.25
58.39 K	64.5
59.13 K	64.98
59.88 K	65.47
60.63 K	66.03
61.37 K	65.92
62.12 K	66.39
62.86 K	67.01
63.6 K	67.59
64.35 K	67.75
65.09 K	68.24
65.83 K	68.99
66.57 K	69.46
67.32 K	69.91
68.06 K	70.28
68.8 K	70.75
69.54 K	72.08
70.28 K	72.22
71.18 K	72.29
72.22 K	73.13
73.27 K	74.21
74.32 K	74.62
75.37 K	75.51
76.42 K	75.54
77.47 K	76.16
78.51 K	77.53
78.8 K	78.32
79.56 K	77.92
80.6 K	79.11
81.65 K	79.67
82.17 K	81.46
